In publication PMC9935382, “Sorting nexin-dependent therapeutic targeting of oncogenic epidermal growth factor receptor” (Cancer Gene Therapy, 2022):
“Also recorded” adds a separate entry of the source.

Columns and labels:
[1] = Body weight and toxicity in WAP-TGFα mice; type: in vivo; conditions: 10 μg/g IV 3X/week, up to 4 weeks
Excerpt: The transgenic mouse line WAP-TGFα (The Jackson Laboratory; Tg(WapTgfa)215Bri) were back crossed to C57BL/6 J background (N8). WAP-TGFα heterozygous males were bred with C57BL/6 J females to generate study animals and offspring were genotyped using primers against the WAP-TGFα transgene. WAP-TGFα heterozygous females were housed continuously with C57Bl/6 J males to induce pregnancy, resulting in transgene expression. […] To ensure randomized treatment arms we added mice to alternating treatment arms as they developed tumors, starting with the control cPTD4 arm. When a second mouse from the same litter developed a tumor, that animal was added to the opposite arm from its litter mate. The researchers were not blinded to the treatment arms. […] Once entered, mice were weighed, tumors measured, and injections given intravenously at 10 μg/g body weight 3x/week for 4 weeks. […] Upon sacrifice, all tumors were collected and fixed in 10% formalin; a portion of each tumor was homogenized in tissue lysis buffer to form tissue protein lysates. Tissues were paraffin-embedded and sectioned by the Tissue Acquisition and Cell Molecular Analysis Shared Resource at the University of Arizona Cancer Center. […]
When tumors reached >100 mm^3, IV injections began at 3X/week, 10 μg/g body weight and tumors were measured 3X/week with calipers. […]
Supplementary Figure 2. […] B. Tumors were measured with calipers 3X/week. […]

[2] = tested on: EGFRkin / SNX1 BAR domain; test: Competitive binding assay, SNX BAR / EGFRkin; set-up: species or system human; conditions: 2.5 μM peptide; data not shown
CHO cells = test: MTT cell viability, CHO; type: cell-based, Chinese hamster; conditions: CHO cells lack EGFR expression, 3 days
Protocol: (§1) 2 × 10^3 cells were plated per well in a 96 well plate and left to adhere overnight. The following day, drug treatments were started and continued for 3 days. To measure the viability of the remaining cell population, 10% 3-(4,5-dimethylthiazol-2-yl)-2,5-diphenyltetrazolium (MTT) in media was added and incubated for 2 hours and conversion of MTT to formazan at 540 nm using a biotech Synergy LX plate reader.
(§2) A–G Cells were plated in a 96-well plate at 2000 cells per well. […] Cell viability was then measured with an MTT assay, viability of treated cells were compared with the vehicle control. H MDA-MB-468 cells were plated and incubated+/− IPTG for 2 days prior to drug treatment to induce expression of an EGFR-targeted shRNA.
Supplementary Figure 1. A. BT20 triple negative breast cancer cells were treated with SNX1.1, 1.2, or 1.3 for 3 days and their viability was measured via MTT analysis. B. CHO cells were treated with PTD4 or SNX1.3 for 3 days and their viability was measured via MTT analysis.

[3] = tested on: mammary tumors of WAP-TGFα transgenic mice; test: Tumor growth in WAP-TGFα transgenic mice; type: in vivo, mouse
Protocol: Statistics for the animal model was performed by the University of Arizona Cancer Center Biostatistics and Bioinformatics Shared Resources (BBSR). The cube root of the observed tumor burden was applied to normalize the raw values. […] For all cell culture experiments error bars represent the standard error of the mean across 3 experimental replicates.
The transgenic mouse line WAP-TGFα (The Jackson Laboratory; Tg(WapTgfa)215Bri) were back crossed to C57BL/6 J background (N8). WAP-TGFα heterozygous males were bred with C57BL/6 J females to generate study animals and offspring were genotyped using primers against the WAP-TGFα transgene. WAP-TGFα heterozygous females were housed continuously with C57Bl/6 J males to induce pregnancy, resulting in transgene expression. […] To ensure randomized treatment arms we added mice to alternating treatment arms as they developed tumors, starting with the control cPTD4 arm. When a second mouse from the same litter developed a tumor, that animal was added to the opposite arm from its litter mate. The researchers were not blinded to the treatment arms. […] Once entered, mice were weighed, tumors measured, and injections given intravenously at 10 μg/g body weight 3x/week for 4 weeks. […] Upon sacrifice, all tumors were collected and fixed in 10% formalin; a portion of each tumor was homogenized in tissue lysis buffer to form tissue protein lysates. Tissues were paraffin-embedded and sectioned by the Tissue Acquisition and Cell Molecular Analysis Shared Resource at the University of Arizona Cancer Center. The University of Arizona IACUC committee performs oversite of animal experimental protocols with coordination from a veterinarian in compliance with AAALAC.
When tumors reached >100 mm^3, IV injections began at 3X/week, 10 μg/g body weight and tumors were measured 3X/week with calipers. Animals were injected for 4 weeks or until they reached maximal tumor burden, defined as a total tumor volume >2000 mm^3 or an individual tumor measuring >2 cm in diameter. […] The WAP-TGFα is a spontaneous model in which each tumor arises and progresses in a heterogeneous fashion. […] In this study, mice were sacrificed after 4 weeks of injections or once they reached tumor burden, represented by the Kaplin-Meyer graph (Fig. 2B).
Mice were bred continuously to induce transgene expression and palpated weekly for tumor formation. […] A Changes in tumor size from entry into study until end of study are shown for each individual tumor, (*) indicate tumors that entered the study at size greater than 500 mm^3, all other tumors entered the study at ~100 mm^3. B a Kaplan-Meier survival curve was generated showing when mice were sacrificed by either reaching tumor burden (2000 mm^3) or the end of the study (p = 0.0002). C Upon sacrifice tumors were harvested and fixed in 10% formalin and embedded in paraffin. FFPE blocks were sectioned at […] and stained with hematoxylin and eosin and imaged at 20x. D Protein lysates were generated from tumors upon the sacrifice and probed for the indicated proteins.

H1975 cells = test: MTT cell viability, H1975; type: cell-based; conditions: EGFR driver mutation T790M, 3 days
Protocol: as §1, §2

[4] = tested on: nuclear EGFR in MDA-MB-468 cells; test: Nuclear EGFR by subcellular fractionation; type: cell-based; conditions: serum starved, 20 ng/mL EGF and peptide, 2 h; subcellular fractionation and immunoblot
Protocol: Cells were trypsinized and washed with PBS, followed by centrifugation at 100 g (4 °C) for 5 minutes. The cell pellet was resuspended in ice-cold cytosolic fraction buffer (150 mM NaCl, 50 mM HEPES pH 7.4, 25 ug/mL digitonin, with Complete protease inhibitors (Roche) and phosphatase inhibitors (2.0 mM sodium orthovanadate, 10.0 μM ammonium molybdate and 10.0 mM sodium fluoride) and tumbled at 4 °C for 10 minutes, followed by centrifuged at 2000 g, 4 °C for 10 minutes and the cytosolic fraction transferred retained for analysis as the cytosolic fraction. The pellet was then washed twice in ice-cold PBS, resuspended in membrane fraction buffer (150 mM NaCl, 50 mM HEPES pH 7.4, 1% NP-40, with protease and phosphatase inhibitors) and incubated on ice for 30 minutes. […]
Lysates were prepared as described, protein concentrations determined by BCA assay (Pierce) and resolved via standard SDS-PAGE [18]. Gels were transferred to either PVDF (Immobilon P or Immobilon FL) membrane and probed with the indicated antibodies and analyzed by either HRP-linked secondaries (Pierce) or IRDye secondaries (Li-Cor), followed by development in Dura Signal (Pierce) or IR (Licor). […]
Cells were then fractionated and verified by HSP90 cytosolic protein, Bap31 membrane protein, or HDAC nuclear protein. […] After the second week, the number of secondary mammospheres were counted.

Structure (SMILES): CC[C@H](C)[C@H](NC(=O)[C@@H](NC(=O)[C@H](Cc1c[nH]cn1)NC(=O)[C@H](CC(N)=O)NC(=O)[C@H](CCCCN)NC(=O)[C@H](C)NC(=O)[C@H](CCCNC(=N)N)NC(=O)[C@H](C)NC(=O)[C@H](CCC(N)=O)NC(=O)[C@H](CCCNC(=N)N)NC(=O)[C@H](C)NC(=O)[C@H](C)NC(=O)[C@H](C)NC(=O)[C@H](CCCNC(=N)N)NC(=O)[C@H](C)NC(=O)[C@H](Cc1ccc(O)cc1)NC(C)=O)C(C)C)C(=O)N[C@@H](CCCCN)C(=O)N[C@@H](Cc1ccc(O)cc1)C(=O)N[C@@H](CC(C)C)C(=O)N[C@@H](CCC(=O)O)C(=O)N[C@H](C(=O)N[C@@H](CC(C)C)C(=O)N[C@@H](CC(C)C)C(=O)N[C@@H](Cc1ccc(O)cc1)C(=O)N[C@@H](CO)C(=O)N[C@@H](CCC(N)=O)C(=O)N[C@@H](CCC(N)=O)C(=O)N[C@@H](CCC(N)=O)C(=O)N[C@@H](CC(C)C)C(=O)N[C@@H](C)C(=O)N[C@@H](CCCCN)C(=O)N[C@@H](Cc1ccc(O)cc1)C(=O)N[C@@H](Cc1c[nH]c2ccccc12)C(=O)N[C@@H](CCC(=O)O)C(=O)N[C@@H](C)C(=O)N[C@@H](Cc1ccccc1)C(=O)N[C@@H](CC(C)C)C(N)=O)[C@@H](C)O [cSNX1.3]
- observable toxicity [1]: without observable toxicity; also recorded: no observable toxicity; also recorded: lack of observable toxicity in normal tissues
- inhibition of SNX BAR binding to EGFRkin [2]: blocks SNX BAR binding to EGFRkin
- impact on cell viability / growth (CHO cells): almost no impact
- tumor response ([3]; 10 μg/g IV 3X/week, up to 4 weeks): significant tumor regression; also recorded: significant reduction in tumor growth; also recorded: several tumors completely regress
- average tumor regression rate ([3]; 10 μg/g IV 3X/week, up to 4 weeks, n = 11 tumors): 4 mm^3/day
- average tumor growth rate ([3]; 10 μg/g body weight IV 3X/week, up to 4 weeks, cPTD4 n = 14 tumors, cSNX1.3 n = 11 tumors): -4 mm^3/day
- mice that reached tumor burden ([3]; mice of total before end of the study, total tumor volume >2000 mm^3 or individual tumor >2 cm): 1/6
- tumors fully regressed ([3]; number of tumors, calipers and confirmed during necropsy, 10 μg/g IV 3X/week): 3
- tumors that demonstrated growth ([3]; number or proportion of tumors at end of study, the 2 growing cSNX1.3 tumors entered at greater than 500 mm^3): 2
- tumors with no change in tumor volume ([3]; tumors of total, first to last measurement, 10 μg/g IV 3X/week): 2/11
- tumors regressed ([3]; tumors of total, 10 μg/g IV 3X/week, up to 4 weeks): 7/11
- effect on cell viability (H1975 cells): minimal effect
- nuclear-localized EGFR [4]: inhibits the nuclear localization of EGFR; also recorded: loss of nuclear-localized EGFR
